Where a name gives a salt, the structure may show the parent alone.
Molecular target: T1, human 5-HT4(a) (Homo sapiens, UniProt Q13639)
T1 construct: host or cells: GeneBlAzer HTR4-CRE-bla CHO-K1 cells
Experiment: Evaluation of agonistic activity in CHO-K1 cells expressing human 5-HT4(a) (GeneBlAzer HTR4-CRE-bla CHO-K1, beta-lactamase reporter)
Type: cell-based
Conditions: CHO-K1 cells stably expressing human 5-HT4(a)
How it was run: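 GeneBlAzer HTR4-CRE-bla CHO-K1 cells, 10^4/well overnight, exposed 5 h to compounds at 8 concentrations in medium with 1% DMSO in the added solution. β-lactamase substrate 2 h in dark; 410 nm excitation, 465/535 nm emission ratio; EC50 by non-linear regression.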

T1 sequence (Q13639 1-387 isoform Q13639-2): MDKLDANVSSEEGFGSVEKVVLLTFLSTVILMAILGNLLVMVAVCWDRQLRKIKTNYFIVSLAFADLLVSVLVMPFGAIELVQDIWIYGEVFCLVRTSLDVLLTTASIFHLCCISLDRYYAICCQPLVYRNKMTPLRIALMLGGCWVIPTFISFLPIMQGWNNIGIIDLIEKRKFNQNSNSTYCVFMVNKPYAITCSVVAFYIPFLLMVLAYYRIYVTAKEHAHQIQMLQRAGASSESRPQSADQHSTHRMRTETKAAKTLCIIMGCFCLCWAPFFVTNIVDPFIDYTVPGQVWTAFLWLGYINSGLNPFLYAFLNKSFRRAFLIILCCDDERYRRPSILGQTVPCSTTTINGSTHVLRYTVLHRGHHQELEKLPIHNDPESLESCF

CCCc1cc(N2CC[C@H](NC(C)C(C)(C)O)C2)nc(Nc2cccc(C#N)c2)n1 (stereo partly drawn) [Example 131, (S)-3-{4-[3-(3-hydroxy-3-methylbutan-2-ylamino)pyrrolidin-1-yl]-6-propylpyrimidin-2-ylamino}benzonitrile] was tested, and the EC50 was 0.091 nM.

For “(S)-2-{1-[2-(indolin-6-ylamino)-6-propylpyrimidin-4-yl]pyrrolidin-2-yl}methanol [Example 217]”, the EC50 was 0.23 nM.

CCCc1cc(N2CC[C@H](NCC3CC3)C2)nc(Nc2cccc(N)c2)n1 [Example 384] was tested, and the EC50 was 0.077 nM.

Compound CCCc1cc(N2CC[C@H](NCC3CC3)C2)nc(Nc2ccc(C)c(C#N)c2)n1 [Example 377, (S)-5-{4-[3-(cyclopropylmethylamino)pyrrolidin-1-yl]-6-propylpyrimidin-2-ylamino}-2-methylbenzonitrile] has an EC50 of 0.0013 nM.

For CCCc1cc(N2CC[C@H](NCC(C)(C)C)C2)nc(Nc2ccc(C)c(C#N)c2)n1 [Example 423], the EC50 was 0.0084 nM.

In the case of CCCc1cc(N2CC[C@H](NCc3ccc(O)cc3)C2)nc(Nc2ccc(C)c(C#N)c2)n1 [Example 417], the EC50 is reported as 0.0051 nM.

CCCc1cc(N2CCC[C@H]2COC)nc(Nc2ccc(OC)c(N)c2)n1 [Example 367, (S)-4-methoxy-N^1-{4-[2-(methoxymethyl)pyrrolidin-1-yl]-6-propylpyrimidin-2-yl}benzene-1,3-diamine] showed an EC50 of 0.153 nM.

CCCCc1cc(N2CC[C@H](NC)C2)nc(Nc2ccc(Cl)c(N)c2)n1 [Example 457] was tested, and the EC50 was 0.003 nM.

CCCc1cc(N2CC[C@H](NC(C)=O)C2)nc(Nc2ccc(C)c(F)c2)n1 [Example 282] was tested, and the EC50 was 0.103 nM.

For CCCc1cc(N2CCC[C@H]2CO)nc(Nc2ccc(C)c([N+](=O)[O-])c2)n1 [Example 210, (S)-{1-[2-(4-methyl-3-nitrophenylamino)-6-propylpyrimidin-4-yl]pyrrolidin-2-yl}methanol], the EC50 was 0.016 nM.

With CCCc1cc(N2CC[C@H](NC(=O)C(C)(C)O)C2)nc(Nc2cccc(C#N)c2)n1 [Example 153, (S)-N-{1-[2-(3-cyanophenylamino)-6-propylpyrimidin-4-yl]pyrrolidin-3-yl}-2-hydroxy-2-methylpropanamide] the EC50 was 0.228 nM.

Compound CCCCc1cc(N2CC[C@H](NC)C2)nc(Nc2ccc(F)c(N)c2)n1 [Example 456] has an EC50 of 0.0026 nM.

Compound CCCc1cc(N2CCC[C@H]2CO)nc(Nc2cccc([N+](=O)[O-])c2)n1 [Example 207] has an EC50 of 0.083 nM.

CCCC(=O)N[C@H]1CCN(c2cc(CCC)nc(Nc3cccc(C#N)c3)n2)C1 [Example 61, (S)-N-{1-[2-(3-cyanophenylamino)-6-propylpyrimidin-4-yl]pyrrolidin-3-yl}butyramide] was tested, and the EC50 was 0.15 nM.

Work on CCCc1cc(N2CC[C@H](NC(=O)CCC(C)=O)C2)nc(Nc2cccc(C#N)c2)n1 [Example 156, (S)-N-{1-[2-(3-cyanophenylamino)-6-propylpyrimidin-4-yl]pyrrolidin-3-yl}-4-oxopentanamide] yielded an EC50 of 0.219 nM.

Compound CCCc1cc(N2CC[C@H](NCCC(C)C)C2)nc(Nc2cccc(C#N)c2)n1 [Example 93, (S)-3-{4-[3-(isopentylamino)pyrrolidin-1-yl]-6-propylpyrimidin-2-ylamino}benzonitrile] has an EC50 of 0.01 nM.

CCCc1cc(N2CC[C@H](NC(C)=O)C2)nc(Nc2ccc(C)c(C)c2)n1 [Example 281] gave an EC50 of 0.196 nM.

In the case of CCCc1cc(N2CC[C@H](N)C2)nc(Nc2ccc(F)c(C#N)c2)n1 [Example 353, (S)-5-[4-(3-aminopyrrolidin-1-yl)-6-propylpyrimidin-2-ylamino]-2-fluorobenzonitrile dihydrochloride], the EC50 is reported as 0.01 nM.

CCCc1cc(N2CCC[C@H]2CO)nc(Nc2ccc(N)c(C(F)(F)F)c2)n1 [Example 211] showed an EC50 of 0.019 nM.

CCCc1cc(N2CC[C@H](NC)C2)nc(Nc2ccc(N)c(C(F)(F)F)c2)n1 [Example 123, (S)-N^1-{4-[3-(methylamino)pyrrolidin-1-yl]-6-propylpyrimidin-2-yl}-3-(trifluoromethyl)benzene-1,4-diamine dihydrochloride] gave an EC50 of 0.0019 nM.

CCCCc1cc(N2CC[C@H](N)C2)nc(Nc2ccc(C)c(C#N)c2)n1 [Example 234, (S)-5-[4-(3-aminopyrrolidin-1-yl)-6-butylpyrimidin-2-ylamino]-2-methylbenzonitrile dihydrochloride] showed an EC50 of 0.0012 nM.

With CCCc1cc(N2CCC[C@H]2CO)nc(Nc2ccc(N)c([N+](=O)[O-])c2)n1 [Example 212, (S)-{1-[2-(4-amino-3-nitrophenylamino)-6-propylpyrimidin-4-yl]pyrrolidin-2-yl}methanol] the EC50 was 0.0089 nM.

For CCCc1cc(N2CC[C@H](NC(C)=O)C2)nc(Nc2ccc(N)cc2)n1 [Example 270], the EC50 was 0.204 nM.

Compound CCCc1cc(N2CC[C@H](NS(C)(=O)=O)C2)nc(Nc2cccc(C#N)c2)n1 [Example 125, (S)-N-{1-[2-(3-cyanophenylamino)-6-propylpyrimidin-4-yl]pyrrolidin-3-yl}methanesulfonamide] has an EC50 of 0.159 nM.

CCCCc1cc(N2CC[C@H](NC(C)=O)C2)nc(Nc2cc(N)cc(C#N)c2)n1 [Example 439] was tested, and the EC50 was 0.0075 nM.

CCCc1cc(N2CC[C@H](NC(=O)C3CCCC3)C2)nc(Nc2cccc(C#N)c2)n1 [Example 62, (S)-N-{1-[2-(3-cyanophenylamino)-6-propylpyrimidin-4-yl]pyrrolidin-3-yl}cyclopentanecarboxamide] was tested, and the EC50 was 0.36 nM.

With CCCc1cc(N2CC[C@H](NC)C2)nc(Nc2ccc(F)cc2)n1 [Example 22, (S)-N-(4-fluorophenyl)-4-[3-(methylamino)pyrrolidin-1-yl]-6-propylpyrimidin-2-amine] the EC50 was 0.33 nM.

Work on CCCc1cc(N2CCC(NC(C)=O)C2)nc(Nc2ccc3c(C)cc(=O)oc3c2)n1 (stereo not drawn) [Example 309] yielded an EC50 of 0.076 nM.

With CCCc1cc(N2CC[C@H](NC(=O)CCCNC(=O)OC(C)(C)C)C2)nc(Nc2cccc(C#N)c2)n1 [Example 166] the EC50 was 0.103 nM.

Work on CCCc1cc(N2CC[C@H](NCc3ccc(OC(C)=O)cc3)C2)nc(Nc2cccc(C#N)c2)n1 [Example 109, (S)-4-({1-[2-(3-cyanophenylamino)-6-propylpyrimidin-4-yl]pyrrolidin-3-ylamino}methyl)phenylacetate] yielded an EC50 of 0.012 nM.

CCCc1cc(N2CCC[C@H]2C)nc(Nc2ccc(F)c(C(F)(F)F)c2)n1 [Example 322] was tested, and the EC50 was 0.15 nM.

Compound CCCc1cc(N2CC[C@H](NCC3CC3)C2)nc(Nc2cccc(C#N)c2)n1 [Example 99, (S)-3-{4-[3-(cyclopropylmethylamino)pyrrolidin-1-yl]-6-propylpyrimidin-2-ylamino}benzonitrile] has an EC50 of 0.0015 nM.

For CCCc1cc(N2CC[C@H](NC(C)=O)C2)nc(Nc2ccc(N)c(C#N)c2)n1 [Example 260], the EC50 was 0.015 nM.

CCCc1cc(N2CC[C@H](NCCN)C2)nc(Nc2cccc(C#N)c2)n1 [Example 220] gave an EC50 of 0.07 nM.

CCCCc1cc(N2CC[C@H](NCC)C2)nc(Nc2ccc(F)c(C#N)c2)n1 [Example 469] was tested, and the EC50 was 0.0021 nM.

Compound CCCc1cc(N2CC[C@H](NC(=O)CO)C2)nc(Nc2ccc(C)c(C#N)c2)n1 [Example 472, (S)—N-{1-[2-(3-cyano-4-methylphenylamino)-6-propylpyrimidin-4-yl]pyrrolidin-3-yl}-2-hydroxyacetamide] has an EC50 of 0.0075 nM.

Source: patent US9890138B2, “Diaminopyrimidine derivatives and processes for the preparation thereof” (YUHAN CORPORATION, priority 2011, dated 2018)
